Read-outs that look alike come from different tables or passages of the source.
Biological target: T1, Androgen Receptor (Homo sapiens, UniProt P10275)
T1 construct: endogenous in cells; host or cells: VCaP cells
T1 sequence (P10275 1-920): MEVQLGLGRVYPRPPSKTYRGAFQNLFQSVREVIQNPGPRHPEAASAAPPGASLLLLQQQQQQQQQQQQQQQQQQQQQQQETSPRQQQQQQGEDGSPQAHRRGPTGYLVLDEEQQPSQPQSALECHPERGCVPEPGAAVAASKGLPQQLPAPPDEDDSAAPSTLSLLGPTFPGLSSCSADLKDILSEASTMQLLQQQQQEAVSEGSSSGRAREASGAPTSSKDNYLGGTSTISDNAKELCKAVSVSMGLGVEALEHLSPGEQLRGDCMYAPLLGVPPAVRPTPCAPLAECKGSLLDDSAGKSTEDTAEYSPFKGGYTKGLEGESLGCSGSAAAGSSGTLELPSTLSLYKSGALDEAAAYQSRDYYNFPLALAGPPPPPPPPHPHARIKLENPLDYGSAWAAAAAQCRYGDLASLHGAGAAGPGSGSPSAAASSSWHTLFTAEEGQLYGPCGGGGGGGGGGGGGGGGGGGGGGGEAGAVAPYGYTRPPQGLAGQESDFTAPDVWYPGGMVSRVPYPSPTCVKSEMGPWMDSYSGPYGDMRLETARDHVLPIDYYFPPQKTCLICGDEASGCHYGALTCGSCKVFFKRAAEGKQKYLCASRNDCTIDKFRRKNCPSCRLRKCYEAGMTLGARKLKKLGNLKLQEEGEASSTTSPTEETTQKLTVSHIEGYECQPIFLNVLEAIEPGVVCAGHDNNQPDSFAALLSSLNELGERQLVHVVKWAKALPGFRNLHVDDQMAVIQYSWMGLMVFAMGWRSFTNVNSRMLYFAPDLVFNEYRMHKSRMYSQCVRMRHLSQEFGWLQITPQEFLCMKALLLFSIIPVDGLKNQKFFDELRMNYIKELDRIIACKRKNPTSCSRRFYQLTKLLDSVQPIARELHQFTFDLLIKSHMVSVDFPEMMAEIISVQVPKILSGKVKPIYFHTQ
Test: Androgen Receptor ELISA assay (PathScan AR ELISA) in VCaP cells: AR degradation, Dmax and DC50
Type: cell-based
How it was run: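 After 24 h exposure of VCaP cells (charcoal-stripped serum, 0.1 nM R1881 agonist, 0.1% DMSO) to seven half-log compound concentrations, residual AR in lysates was measured by PathScan ELISA (TMB absorbance, 450 nm). Cells were plated at 30,000/well and grown at least 3 days beforehand.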

[1] = VCaP cells; Table 35; read-out: VCaP DC50
[2] = VCaP, VCaP cells; Table 35; read-out: VCaP Dmax (%)
[3] = read-out: VCaP DC50; VCaP cells; Table 35

| Compound | DC50 [1] | Dmax [2] | Dmax (VCaP, read-out: VCaP Dmax (%)) | DC50 [3] |
| --- | --- | --- | --- | --- |
| Cc1ncsc1-c1ccc([C@H](C)NC(=O)[C@@H]2C[C@@H](O)CN2C(=O)[C@@H](NC(=O)CNC(=O)c2ccc(Oc3ccc(C(=O)N[C@H]4C(C)(C)[C@H](Oc5ccc(C#N)c(Cl)c5)C4(C)C)cn3)cc2)C(C)(C)C)cc1 [Example 448] | < 50 nM | > 71% |  |  |
| Cc1nccn1-c1ccc([C@H](C)NC(=O)[C@@H]2C[C@@H](O)CN2C(=O)[C@@H](NC(=O)COCCOc2ccc(-c3ccc(C(=O)N[C@H]4C(C)(C)[C@H](Oc5ccc(C#N)c(Cl)c5)C4(C)C)cc3)cc2)C(C)(C)C)cc1 [Example 449] | < 50 nM | > 71% |  |  |
| Cc1ncsc1-c1ccc([C@H](C)NC(=O)[C@@H]2C[C@@H](O)CN2C(=O)[C@@H](NC(=O)COCCOc2ccc(-c3ccc(C(=O)N[C@H]4C(C)(C)[C@H](Oc5ccc(C#N)c(Cl)c5)C4(C)C)cc3)cc2)C(C)(C)C)cc1 [Example 450] | < 50 nM | > 71% |  |  |
| CN(C)c1ccc(CNC(=O)[C@@H]2C[C@@H](O)CN2C(=O)[C@@H](NC(=O)COCCCOCCCCCOc2ccc(N3C(=S)N(c4ccc(C#N)c(C(F)(F)F)c4)C(=O)C3(C)C)cc2)C(C)(C)C)cn1 [Example 451] |  |  | < 25% | > 501 nM |
| C[C@H](NC(=O)[C@@H]1C[C@@H](O)CN1C(=O)[C@@H](NC(=O)COCCCOCCCCCOc1ccc(N2C(=S)N(c3ccc(C#N)c(C(F)(F)F)c3)C(=O)C2(C)C)cc1)C(C)(C)C)c1ccc(-c2nccn2C)cc1 [Example 452] |  |  | < 25% | > 501 nM |
| Cc1ncsc1-c1ccc(CNC(=O)[C@@H]2C[C@@H](O)CN2C(=O)[C@@H](NC(=O)COCCCOCCCCCOc2ccc(N3C(=S)N(c4ccc(C#N)c(C(F)(F)F)c4)C(=O)C3(C)C)cc2)C(C)(C)C)nc1 [Example 453] |  |  | < 25% | > 501 nM |
| Cc1ncsc1-c1ccc([C@@H](C)NC(=O)[C@H]2C[C@H](O)CN2C(=O)[C@H](NC(=O)COCCCCCNc2ccc(C(=O)N[C@H]3C(C)(C)[C@H](Oc4ccc(C#N)c(Cl)c4)C3(C)C)cc2)C(C)(C)C)cc1 [Example 454] | > 501 nM | 26 to 50% |  |  |
| Cc1ncsc1-c1ccc([C@H](C)NC(=O)[C@@H]2C[C@@H](O)CN2C(=O)C(NC(=O)COCCCCCNc2ccc(C(=O)N[C@H]3C(C)(C)[C@@H](Oc4ccc(C#N)c(Cl)c4)C3(C)C)cc2)C(C)(C)C)cc1 (stereo partly drawn) [Example 455] | > 501 nM | 51 to 70% |  |  |
| Cc1ncsc1-c1ccc([C@H](C)NC(=O)[C@@H]2C[C@@H](O)CN2C(=O)[C@@H](NC(=O)COCCC2CCN(c3ccc(C(=O)N[C@H]4C(C)(C)[C@H](Oc5ccc(C#N)c(Cl)c5)C4(C)C)cc3)CC2)C(C)(C)C)cc1 [Example 456] | < 50 nM | > 71% |  |  |
| Cc1ncsc1-c1ccc([C@H](C)NC(=O)[C@@H]2C[C@@H](O)CN2C(=O)[C@H](NC(=O)COCCCCCNc2ccc(C(=O)N[C@H]3C(C)(C)[C@H](Oc4ccc(C#N)c(Cl)c4)C3(C)C)cc2)C(C)(C)C)cc1 [Example 457] | > 501 nM | < 25% |  |  |
| Cc1ncsc1-c1ccc([C@H](C)NC(=O)[C@H]2C[C@@H](O)CN2C(=O)[C@@H](NC(=O)COCCCCCNc2ccc(C(=O)N[C@H]3C(C)(C)[C@H](Oc4ccc(C#N)c(Cl)c4)C3(C)C)cc2)C(C)(C)C)cc1 [Example 458] | > 501 nM | < 25% |  |  |
| Cc1ncsc1-c1ccc([C@@H](C)NC(=O)[C@@H]2C[C@@H](O)CN2C(=O)[C@@H](NC(=O)COCCCCCNc2ccc(C(=O)N[C@H]3C(C)(C)[C@H](Oc4ccc(C#N)c(Cl)c4)C3(C)C)cc2)C(C)(C)C)cc1 [Example 459] | > 501 nM | 26 to 50% |  |  |
| Cc1ncsc1-c1ccc([C@H](C)NC(=O)[C@@H]2CC(OC(=O)[C@@H]3CCCN3)CN2C(=O)[C@@H](NC(=O)COCCCCCNc2ccc(C(=O)N[C@H]3C(C)(C)[C@H](Oc4ccc(C#N)c(Cl)c4)C3(C)C)cc2)C(C)(C)C)cc1 (stereo partly drawn) [Example 461] | < 50 nM | > 71% |  |  |
| Cc1ncsc1-c1ccc([C@H](CN2CCCC2)NC(=O)[C@@H]2C[C@@H](O)CN2C(=O)[C@@H](NC(=O)COCCCCCOc2ccc(C(=O)N[C@H]3C(C)(C)[C@H](Oc4ccc(C#N)c(Cl)c4)C3(C)C)cc2)C(C)(C)C)cc1 [Example 465] | < 50 nM | > 71% |  |  |
| Cc1ncsc1-c1ccc([C@@H](CN2CCCC2)NC(=O)[C@@H]2C[C@@H](O)CN2C(=O)[C@@H](NC(=O)COCCCCCOc2ccc(C(=O)N[C@H]3C(C)(C)[C@H](Oc4ccc(C#N)c(Cl)c4)C3(C)C)cc2)C(C)(C)C)cc1 [Example 466] | 51 to 500 nM | > 71% |  |  |
| Cc1ncsc1-c1ccc([C@H](C)NC(=O)[C@@H]2C[C@@H](OC(=O)C(C)C)CN2C(=O)[C@@H](NC(=O)COCCCCCNc2ccc(C(=O)N[C@H]3C(C)(C)[C@H](Oc4ccc(C#N)c(Cl)c4)C3(C)C)cc2)C(C)(C)C)cc1 [Example 468] | < 50 nM | > 71% |  |  |
| Cc1ncsc1-c1ccc([C@@H](CN(C)C)NC(=O)[C@@H]2C[C@@H](O)CN2C(=O)[C@@H](NC(=O)COCCCCCOc2ccc(C(=O)N[C@H]3C(C)(C)[C@H](Oc4ccc(C#N)c(Cl)c4)C3(C)C)cc2)C(C)(C)C)cc1 [Example 471] | > 501 nM | 26 to 50% |  |  |
| Cc1ncsc1-c1ccc(CNC(=O)[C@@H]2C[C@@H](O)CN2C(=O)[C@@H](NC(=O)CS(=O)(=O)CCOc2ccc(-c3ccc(C(=O)N[C@H]4C(C)(C)[C@H](Oc5ccc(C#N)c(Cl)c5)C4(C)C)cc3)cc2)C(C)(C)C)cc1 [Example 472] | < 50 nM | > 71% |  |  |
| Cc1ncsc1-c1ccc([C@H](C)NC(=O)[C@@H]2C[C@@H](O)CN2C(=O)[C@@H](NC(=O)COCCCCCNc2ccc(C(=O)N(C)[C@H]3C(C)(C)[C@H](Oc4ccc(C#N)c(Cl)c4)C3(C)C)cc2)C(C)(C)C)cc1 [Example 473] | < 50 nM | 26 to 50% |  |  |
| Cc1ncsc1-c1ccc([C@@H](CN)NC(=O)[C@@H]2C[C@@H](O)CN2C(=O)[C@@H](NC(=O)COCCCCCOc2ccc(C(=O)N[C@H]3C(C)(C)[C@H](Oc4ccc(C#N)c(Cl)c4)C3(C)C)cc2)C(C)(C)C)cc1 [Example 474] | < 50 nM | 26 to 50% |  |  |
| Cc1ncsc1-c1ccc([C@H](CN)NC(=O)[C@@H]2C[C@@H](O)CN2C(=O)[C@@H](NC(=O)COCCCCCOc2ccc(C(=O)N[C@H]3C(C)(C)[C@H](Oc4ccc(C#N)c(Cl)c4)C3(C)C)cc2)C(C)(C)C)cc1 [Example 475] | < 50 nM | > 71% |  |  |
| Cc1ncsc1-c1ccc(CNC(=O)[C@@H]2C[C@@H](O)CN2C(=O)[C@@H](NC(=O)COCCCCCS(=O)(=O)c2ccc(C(=O)N[C@H]3C(C)(C)[C@H](Oc4ccc(C#N)c(Cl)c4)C3(C)C)cc2)C(C)(C)C)cc1 [Example 476] | < 50 nM | > 71% |  |  |
| Cc1ncsc1-c1ccc(CNC(=O)[C@@H]2C[C@@H](O)CN2C(=O)[C@@H](NC(=O)COCCCOCCCCCOc2ccc(N3C(=S)N(c4ccccc4)C(=O)C3(C)C)cc2)C(C)(C)C)cc1 [Example 477] |  | < 25% |  |  |
| Cc1ncsc1-c1ccc(CNC(=O)[C@@H]2C[C@@H](O)CN2C(=O)[C@@H](NC(=O)COCCCOCCCCCOc2ccc(N3C(=S)N(c4cccc(C(F)(F)F)c4)C(=O)C3(C)C)cc2)C(C)(C)C)cc1 [Example 478] | 51 to 500 nM | 26 to 50% |  |  |
| Cc1ncsc1-c1ccc(CNC(=O)[C@@H]2C[C@@H](O)CN2C(=O)[C@@H](NC(=O)COCCCOCCCCCOc2ccc(N3C(=S)N(c4ccc(C#N)cc4)C(=O)C3(C)C)cc2)C(C)(C)C)cc1 [Example 479] |  | 26 to 50% |  |  |

From US11427548B2 (Arvinas Operations, Inc., priority 2015, dated 2022)
